Reference: PubChem BioAssay (NCI)
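Where inhibition never reached the appropriate level, the endpoint shown equals the highest concentration tested. Otherwise, values were interpolated linearly from a five-concentration, 48-hour dose response in 96-well plates. Here, GI50 denotes the concentration required for 50% inhibition of growth. TGI: total growth inhibition.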

Legend:
Experiment in all cases: DTP human tumour cell line panel, 48 h
NCI/ADR-RES ovarian = tested on: NCI/ADR-RES ovarian
HL-60(TB) leukemia = tested on: HL-60(TB) leukemia
UACC-257 melanoma = tested on: UACC-257 melanoma
MDA-MB-435 = tested on: MDA-MB-435
A498 renal = tested on: A498 renal
RPMI-8226 leukemia = tested on: RPMI-8226 leukemia
CAKI-1 renal = tested on: CAKI-1 renal
T-47D breast = tested on: T-47D breast
MOLT-4 leukemia = tested on: MOLT-4 leukemia
CCRF-CEM leukemia = tested on: CCRF-CEM leukemia
OVCAR-5 ovarian = tested on: OVCAR-5 ovarian
TK-10 renal = tested on: TK-10 renal
HCT-15 colon = tested on: HCT-15 colon
SW-620 colon = tested on: SW-620 colon
DU-145 prostate = tested on: DU-145 prostate
UO-31 renal = tested on: UO-31 renal
KM12 colon = tested on: KM12 colon
M14 melanoma = tested on: M14 melanoma
SK-OV-3 ovarian = tested on: SK-OV-3 ovarian
NCI-H522 lung = tested on: NCI-H522 lung
ACHN renal = tested on: ACHN renal
SNB-19 CNS = tested on: SNB-19 CNS
OVCAR-4 ovarian = tested on: OVCAR-4 ovarian
OVCAR-3 ovarian = tested on: OVCAR-3 ovarian

COc1cc(C(=O)/C=C/c2ccc(OCCCCCC[P+](c3ccccc3)(c3ccccc3)c3ccccc3)cc2)cc(OC)c1OC was tested, and the GI50 (NCI/ADR-RES ovarian) was 3580 nM, the TGI (NCI/ADR-RES ovarian) was > 100000 nM and the GI50 (HL-60(TB) leukemia) was 227 nM. The TGI (HL-60(TB) leukemia) was 643 nM, the GI50 (UACC-257 melanoma) was 298 nM and the TGI (UACC-257 melanoma) was 1260 nM. It also gave a GI50 (MDA-MB-435) of 337 nM, a TGI (MDA-MB-435) of 1140 nM and a GI50 (A498 renal) of 710 nM. It also gave a TGI (A498 renal) of 1970 nM, a GI50 (RPMI-8226 leukemia) of 214 nM and a TGI (RPMI-8226 leukemia) of 703 nM. It also gave a GI50 (CAKI-1 renal) of 1640 nM, a TGI (CAKI-1 renal) of 2990 nM and a GI50 (T-47D breast) of 261 nM. The TGI (T-47D breast) was 1770 nM, the GI50 (MOLT-4 leukemia) was 559 nM and the TGI (MOLT-4 leukemia) was 3000 nM. It also gave a GI50 (CCRF-CEM leukemia) of 557 nM, a TGI (CCRF-CEM leukemia) of 3090 nM and a GI50 (OVCAR-5 ovarian) of 754 nM. It also gave a TGI (OVCAR-5 ovarian) of 2100 nM, a GI50 (TK-10 renal) of 1340 nM and a TGI (TK-10 renal) of 2810 nM. It also gave a GI50 (HCT-15 colon) of 1600 nM, a TGI (HCT-15 colon) of 3130 nM and a GI50 (SW-620 colon) of 358 nM. The TGI (SW-620 colon) was 1360 nM, the GI50 (DU-145 prostate) was 698 nM and the TGI (DU-145 prostate) was 1960 nM. The GI50 (UO-31 renal) was 1460 nM, the TGI (UO-31 renal) was 2780 nM and the GI50 (KM12 colon) was 355 nM. The TGI (KM12 colon) was 1310 nM, the GI50 (M14 melanoma) was 971 nM and the TGI (M14 melanoma) was 3180 nM. It also gave a GI50 (SK-OV-3 ovarian) of 1320 nM, a TGI (SK-OV-3 ovarian) of 2700 nM and a GI50 (NCI-H522 lung) of 342 nM. The TGI (NCI-H522 lung) was 2090 nM, the GI50 (ACHN renal) was 1500 nM and the TGI (ACHN renal) was 2820 nM. It also gave a GI50 (SNB-19 CNS) of 341 nM, a TGI (SNB-19 CNS) of 1310 nM and a GI50 (OVCAR-4 ovarian) of 374 nM. For the same compound, the TGI (OVCAR-4 ovarian) was 1480 nM, the GI50 (OVCAR-3 ovarian) was 347 nM and the TGI (OVCAR-3 ovarian) was 1160 nM.
